This is an account of results in PMC11614538, “The proline-rich antimicrobial peptide B7-005: low bacterial resistance, safe for human cells and effective in zebrafish embryo bacteraemia model” (Open Biology, 2024).

The test system of the test is HaCaT cells. As to the kind of experiment: Cell viability MTT, HaCaT. It counts as cell-based, human. The settings on record: 24 h, DMEM, n ≥ 9. As for the experimental part:
Chronic lymphocytic leukaemia-derived MEC-1 cells were cultured in suspension using complete RPMI (EuroClone), supplemented with 100 U ml^−1 penicillin (Sigma), 100 μg ml^−1 streptomycin (Sigma), 2 mM L-glutamine and 10% (v/v) foetal bovine serum (FBS, EuroClone). A549 human lung carcinoma epithelial cells and immortalized human keratinocytes (HaCaT) were grown in adhesion in complete high glucose Dulbecco’s MEM (DMEM, EuroClone) supplemented with 100 U ml^−1 penicillin (Sigma), […] streptomycin (Sigma), 2 mM L-glutamine and 10% (v/v) of FBS. […] All cell lines were counted in a Bürker chamber and diluted to the desired working concentrations.
Cell viability was evaluated by tetrazolium salt (MTT, or MTS for HUVECs only) tests. […] The next day, absorbance was measured at 570 nm using a Nanoquant Infinite-M200Pro plate reader (Tecan, Switzerland).
HUVECs, 7500 cells per well, were seeded in HESFM with 10% FBS in a 96-well flat-bottomed microtitre plate (EuroClone SpA, Italy). […] The plate was then incubated for 2 h at 37°C in a humidified 5% CO2 atmosphere, and the absorbance was measured at 490 nm, using a spectrophotometer (PowerWaveX, Bio-Tek Instruments). The cytotoxicity was calculated by comparing the absorbance of peptide-treated samples with that of the untreated control and expressed in percentage of vitality. […]

Molecules are shown by their SMILES. Residues, ends and D or L forms follow the SMILES beside them.

A word on the IC50: it is the midpoint of a concentration-inhibition curve. High values mean weaker potency, low ones greater potency. `CC[C@H](C)[C@H](NC(=O)[C@H](CCCNC(=N)N)NC(=O)[C@@H](N)Cc1c[nH]c2ccccc12)C(=O)N[C@@H](CCCNC(=N)N)C(=O)N[C@@H](CCCNC(=N)N)C(=O)N[C@@H](CCCNC(=N)N)C(=O)N[C@@H](Cc1c[nH]c2ccccc12)C(=O)N1CCC[C@H]1C(=O)N[C@@H](CCCNC(=N)N)C(=O)N[C@@H](CC(C)C)C(=O)N1CCC[C@H]1C(=O)N[C@@H](CCCNC(=N)N)C(=O)N1CCC[C@H]1C(=O)N[C@@H](CCCNC(=N)N)C(=O)N[C@@H](Cc1c[nH]c2ccccc12)C(=O)N[C@@H](CCCNC(=N)N)C(=O)O` [B7-005] (H-WRIRRRWPRLPRPRWR-OH) showed an IC50 of under 128 µM.
